One experiment addresses EGFR (Homo sapiens (Human), UniProt P00533). The experiment in a line: Kinase inhibition, Mobility-Shift Assay. Type of experiment: biochemical. The note with it: class; read-out: EGFR range of activity (IC50).
Experiment [1] concerns hepatocellular carcinoma cell line (Hep3B 2.1-7). Put plainly: Tumor cell proliferation inhibition (CTG, 72 h). Format: cell-based. The conditions noted are these: Homo sapiens; Hep3B 2.1-7 cells, class; read-out: Hep3B 2.1-7 range of activity (IC50).
Another experiment has as its target VEGFR-2 (KDR) (Homo sapiens (Human), UniProt P35968). The experiment in a line: Kinase inhibition, Mobility-Shift Assay. Type of experiment: biochemical. The conditions noted are these: class; read-out: KDR activity effect range (IC50).
Experiment [2] deals with bladder cancer cell line (RT112/84). Put plainly: Tumor cell proliferation inhibition (CTG, 72 h). Format: cell-based. The note with it: Homo sapiens; RT112/84 cells, class; read-out: RT112/84 range of activity (IC50).
Another experiment has as its target C-MET (Homo sapiens (Human), UniProt P08581). The experiment in a line: Kinase inhibition, Mobility-Shift Assay. Format: biochemical. The note with it: class; read-out: C-MET range of activity (IC50).
Experiment [3] relates to cervical cancer cell line (Hela). Put plainly: Tumor cell proliferation inhibition (CTG, 72 h). The conditions noted are these: Homo sapiens; Hela cells, class; read-out: Hela activity effect range (IC50). Format: cell-based.
The test system of experiment [4] is leukemia cell line (K562). The experiment in a line: Tumor cell proliferation inhibition (CTG, 72 h). The note with it: Homo sapiens; K562 cells, class; read-out: K562 activity effect range (IC50). Format: cell-based.
A further experiment concerns the target FGFR2 (Homo sapiens (Human), UniProt P21802). Put plainly: Kinase inhibition, Mobility-Shift Assay. Format: biochemical. The conditions noted are these: class; read-out: FGFR2 range of activity effects (IC50).
In experiment [5] the test system is thyroid cancer cell line (TT). Put plainly: Tumor cell proliferation inhibition (CTG, 72 h). Type of experiment: cell-based. The conditions noted are these: Homo sapiens; TT cells, class; read-out: TT range of activity (IC50).
The target in a further experiment is FGFR4 (Homo sapiens (Human), UniProt P22455). Put plainly: Kinase inhibition, Mobility-Shift Assay. Type of experiment: biochemical. The conditions noted are these: class; read-out: FGFR4 range of activity effects (IC50).

Bounds are passed on as bounds.

Chain of C-MET (P08581 25-1390): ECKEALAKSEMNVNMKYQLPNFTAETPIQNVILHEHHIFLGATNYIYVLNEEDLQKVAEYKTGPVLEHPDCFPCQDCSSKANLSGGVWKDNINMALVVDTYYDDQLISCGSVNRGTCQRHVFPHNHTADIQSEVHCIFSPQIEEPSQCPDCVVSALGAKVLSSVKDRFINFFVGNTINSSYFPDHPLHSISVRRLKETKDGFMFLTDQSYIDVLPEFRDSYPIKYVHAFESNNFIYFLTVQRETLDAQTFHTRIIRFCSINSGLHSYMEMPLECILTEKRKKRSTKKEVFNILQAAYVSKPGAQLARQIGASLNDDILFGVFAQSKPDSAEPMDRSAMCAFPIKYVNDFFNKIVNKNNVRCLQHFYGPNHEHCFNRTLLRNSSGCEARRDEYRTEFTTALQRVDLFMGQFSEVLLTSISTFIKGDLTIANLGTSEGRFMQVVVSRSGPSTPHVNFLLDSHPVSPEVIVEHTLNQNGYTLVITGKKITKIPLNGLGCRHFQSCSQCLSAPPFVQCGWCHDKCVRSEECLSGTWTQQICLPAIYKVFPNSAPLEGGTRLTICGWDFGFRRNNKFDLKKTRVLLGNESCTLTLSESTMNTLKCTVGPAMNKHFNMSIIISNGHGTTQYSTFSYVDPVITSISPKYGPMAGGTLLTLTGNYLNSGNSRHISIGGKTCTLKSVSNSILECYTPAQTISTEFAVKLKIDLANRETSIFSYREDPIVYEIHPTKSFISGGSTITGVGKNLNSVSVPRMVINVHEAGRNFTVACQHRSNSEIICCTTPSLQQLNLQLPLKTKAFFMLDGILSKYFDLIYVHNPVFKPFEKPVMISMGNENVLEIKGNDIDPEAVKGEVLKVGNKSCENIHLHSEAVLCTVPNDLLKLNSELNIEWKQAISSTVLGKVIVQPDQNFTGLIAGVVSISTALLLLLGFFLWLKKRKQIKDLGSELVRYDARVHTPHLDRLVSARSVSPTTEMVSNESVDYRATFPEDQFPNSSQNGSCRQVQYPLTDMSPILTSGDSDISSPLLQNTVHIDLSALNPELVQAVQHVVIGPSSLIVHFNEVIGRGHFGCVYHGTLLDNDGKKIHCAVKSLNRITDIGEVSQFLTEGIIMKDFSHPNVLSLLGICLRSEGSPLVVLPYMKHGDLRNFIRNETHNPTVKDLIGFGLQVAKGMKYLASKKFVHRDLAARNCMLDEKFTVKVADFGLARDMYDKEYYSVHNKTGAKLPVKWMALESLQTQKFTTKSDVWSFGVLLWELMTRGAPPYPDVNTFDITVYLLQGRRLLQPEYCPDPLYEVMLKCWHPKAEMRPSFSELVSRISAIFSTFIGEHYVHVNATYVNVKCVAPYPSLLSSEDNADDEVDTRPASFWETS
Chain of FGFR2 (P21802 22-821): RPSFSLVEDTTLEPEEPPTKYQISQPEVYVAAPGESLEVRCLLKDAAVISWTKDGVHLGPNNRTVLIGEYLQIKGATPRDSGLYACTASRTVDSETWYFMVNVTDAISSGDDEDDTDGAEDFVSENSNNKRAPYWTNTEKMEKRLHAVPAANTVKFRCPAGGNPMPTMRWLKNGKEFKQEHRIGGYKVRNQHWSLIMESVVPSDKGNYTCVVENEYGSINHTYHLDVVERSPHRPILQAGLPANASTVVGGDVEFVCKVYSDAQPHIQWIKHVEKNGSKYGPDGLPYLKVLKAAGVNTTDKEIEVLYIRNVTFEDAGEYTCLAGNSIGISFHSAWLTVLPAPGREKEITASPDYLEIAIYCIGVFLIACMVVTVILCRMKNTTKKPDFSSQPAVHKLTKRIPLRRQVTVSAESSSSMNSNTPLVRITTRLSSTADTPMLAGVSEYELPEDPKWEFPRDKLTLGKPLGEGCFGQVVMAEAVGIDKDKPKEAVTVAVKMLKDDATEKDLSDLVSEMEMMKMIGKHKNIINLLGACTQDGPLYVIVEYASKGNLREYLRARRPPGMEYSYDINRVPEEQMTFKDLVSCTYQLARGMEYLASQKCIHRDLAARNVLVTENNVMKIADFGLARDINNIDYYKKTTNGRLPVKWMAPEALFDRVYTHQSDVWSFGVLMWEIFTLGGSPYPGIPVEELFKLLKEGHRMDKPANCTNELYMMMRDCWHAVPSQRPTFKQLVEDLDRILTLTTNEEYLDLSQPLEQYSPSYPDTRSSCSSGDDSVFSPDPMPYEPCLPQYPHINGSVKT
Chain of FGFR4 (P22455 22-802): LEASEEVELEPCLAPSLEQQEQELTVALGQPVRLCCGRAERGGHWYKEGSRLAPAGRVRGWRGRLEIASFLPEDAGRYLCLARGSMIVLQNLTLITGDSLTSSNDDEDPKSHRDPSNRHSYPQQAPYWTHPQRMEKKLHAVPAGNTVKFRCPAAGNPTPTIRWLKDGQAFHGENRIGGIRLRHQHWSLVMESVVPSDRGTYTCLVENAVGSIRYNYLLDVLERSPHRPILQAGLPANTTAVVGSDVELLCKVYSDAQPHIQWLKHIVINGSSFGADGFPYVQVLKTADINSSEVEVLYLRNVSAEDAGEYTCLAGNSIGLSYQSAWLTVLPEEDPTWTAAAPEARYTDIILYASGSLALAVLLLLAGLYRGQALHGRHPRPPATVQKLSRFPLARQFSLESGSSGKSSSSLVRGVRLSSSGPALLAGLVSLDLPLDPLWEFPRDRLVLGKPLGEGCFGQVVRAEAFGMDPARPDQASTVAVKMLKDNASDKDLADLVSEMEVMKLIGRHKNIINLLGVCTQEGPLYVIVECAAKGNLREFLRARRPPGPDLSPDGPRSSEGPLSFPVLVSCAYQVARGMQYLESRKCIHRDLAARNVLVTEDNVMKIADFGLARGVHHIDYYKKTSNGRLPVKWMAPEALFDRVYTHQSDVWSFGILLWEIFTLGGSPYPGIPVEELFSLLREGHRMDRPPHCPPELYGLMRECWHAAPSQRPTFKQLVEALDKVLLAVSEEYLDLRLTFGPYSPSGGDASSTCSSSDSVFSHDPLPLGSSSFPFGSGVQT
Chain of EGFR (P00533 25-1210): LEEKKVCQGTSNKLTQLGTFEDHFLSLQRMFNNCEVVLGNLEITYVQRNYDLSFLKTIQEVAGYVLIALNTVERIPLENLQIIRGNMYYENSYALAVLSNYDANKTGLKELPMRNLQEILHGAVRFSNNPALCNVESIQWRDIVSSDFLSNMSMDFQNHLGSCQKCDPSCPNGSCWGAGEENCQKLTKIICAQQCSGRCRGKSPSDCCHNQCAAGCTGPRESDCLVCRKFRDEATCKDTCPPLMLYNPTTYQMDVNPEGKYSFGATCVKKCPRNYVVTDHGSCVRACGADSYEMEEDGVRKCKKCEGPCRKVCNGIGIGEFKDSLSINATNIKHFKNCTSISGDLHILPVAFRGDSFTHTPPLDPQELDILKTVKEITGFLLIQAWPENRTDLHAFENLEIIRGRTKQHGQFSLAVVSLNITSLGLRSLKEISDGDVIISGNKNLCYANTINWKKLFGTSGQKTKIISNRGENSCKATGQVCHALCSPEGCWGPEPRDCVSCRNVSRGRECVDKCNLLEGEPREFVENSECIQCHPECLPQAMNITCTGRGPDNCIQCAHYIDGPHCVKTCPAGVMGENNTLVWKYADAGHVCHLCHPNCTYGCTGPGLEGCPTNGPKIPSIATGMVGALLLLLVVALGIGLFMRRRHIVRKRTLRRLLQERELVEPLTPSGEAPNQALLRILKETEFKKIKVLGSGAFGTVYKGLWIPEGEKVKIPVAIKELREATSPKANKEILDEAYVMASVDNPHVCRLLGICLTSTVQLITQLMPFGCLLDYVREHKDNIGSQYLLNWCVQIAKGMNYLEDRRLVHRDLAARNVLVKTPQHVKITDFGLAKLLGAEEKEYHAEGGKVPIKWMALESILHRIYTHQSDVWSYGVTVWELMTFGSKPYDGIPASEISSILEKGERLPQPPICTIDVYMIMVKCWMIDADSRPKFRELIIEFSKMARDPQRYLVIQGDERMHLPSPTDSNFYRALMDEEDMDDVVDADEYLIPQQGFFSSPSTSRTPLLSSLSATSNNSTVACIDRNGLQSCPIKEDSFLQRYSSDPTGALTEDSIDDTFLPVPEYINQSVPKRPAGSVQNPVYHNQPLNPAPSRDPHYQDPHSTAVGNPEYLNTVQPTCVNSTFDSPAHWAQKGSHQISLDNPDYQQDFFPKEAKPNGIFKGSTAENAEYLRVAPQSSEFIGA

Turning to `COc1cc2nccc(Oc3c(F)cc(NC(=O)NC[C@@H](C)O)c(Cl)c3F)c2cc1C(N)=O` [III-10], the IC50 on EGFR is more than 100 nM; in experiment [1], more than 5000 nM; on VEGFR-2 (KDR) it was more than 10 nM; in experiment [2], more than 1000 nM; at C-MET, more than 100 nM; in [3] it was more than 10000 nM. Moreover, the IC50 was more than 10000 nM in [4], more than 100 nM at FGFR2, more than 10000 nM in [5] and more than 100 nM at FGFR4.

Take `COc1cc2nccc(Oc3c(F)cc(NC(=O)NC(C)(C)CO)c(Cl)c3F)c2cc1C(N)=O` [III-11]: the IC50 at EGFR is more than 100 nM; in experiment [1] it was more than 5000 nM; on VEGFR-2 (KDR), more than 10 nM; in [2] it was more than 1000 nM; on C-MET, more than 100 nM; in experiment [3], more than 10000 nM. In addition, the IC50 was more than 10000 nM in experiment [4], more than 100 nM on FGFR2, more than 10000 nM in experiment [5] and more than 100 nM on FGFR4.

Turning to `COc1cc2nccc(Oc3c(F)cc(NC(=O)NCC(C)(C)O)c(Cl)c3F)c2cc1C(N)=O` [III-12], the IC50 on EGFR is more than 100 nM; in experiment [1] it was more than 5000 nM; at VEGFR-2 (KDR), more than 10 nM; in [2], more than 1000 nM; at C-MET, more than 100 nM; in experiment [3], more than 10000 nM. In addition, the IC50 in experiment [4] was more than 10000 nM; at FGFR2, more than 100 nM; in [5], more than 10000 nM; on FGFR4, more than 100 nM.

Take `COc1cc2nccc(Oc3c(F)cc(NC(=O)NC(CO)CO)c(Cl)c3F)c2cc1C(N)=O` [III-13]: the IC50 is more than 100 nM at EGFR; more than 5000 nM in [1]; more than 10 nM at VEGFR-2 (KDR); more than 1000 nM in experiment [2]; more than 100 nM at C-MET; more than 10000 nM in [3]. In addition, the IC50 in [4] is more than 10000 nM; on FGFR2 it was more than 100 nM; in experiment [5], more than 10000 nM; on FGFR4, more than 100 nM.

As to `COc1cc2nccc(Oc3c(F)cc(NC(=O)NC[C@H](O)CO)c(Cl)c3F)c2cc1C(N)=O` [III-14], the IC50 is more than 100 nM on EGFR; more than 5000 nM in experiment [1]; more than 10 nM on VEGFR-2 (KDR); more than 1000 nM in [2]; more than 100 nM at C-MET; more than 10000 nM in experiment [3]. For the same molecule, the IC50 in experiment [4] is more than 10000 nM; at FGFR2 it was more than 100 nM; in [5], more than 10000 nM; on FGFR4 it was more than 100 nM.

For the molecule `COc1cc2nccc(Oc3c(F)cc(NC(=O)NC[C@@H](O)CO)c(Cl)c3F)c2cc1C(N)=O` [III-15], the IC50 at EGFR is more than 100 nM; in experiment [1], more than 5000 nM; at VEGFR-2 (KDR), more than 10 nM; in [2] it was more than 1000 nM; at C-MET, more than 100 nM; in [3] it was more than 10000 nM. Besides, the IC50 is more than 10000 nM in experiment [4], more than 100 nM at FGFR2, more than 10000 nM in experiment [5] and more than 100 nM at FGFR4.

Consider `COc1cc2nccc(Oc3c(F)cc(NC(=O)NC4CC4)c(F)c3F)c2cc1C(N)=O` [III-16], for which the IC50 is more than 100 nM at EGFR; 2500 to 5000 nM in experiment [1]; 2 to 10 nM on VEGFR-2 (KDR); 200 to 1000 nM in experiment [2]; 60 to 100 nM at C-MET; more than 10000 nM in experiment [3]. In addition, the IC50 was 5000 to 10000 nM in experiment [4], 30 to 100 nM on FGFR2, more than 10000 nM in experiment [5] and more than 100 nM at FGFR4.

For `COc1cc2nccc(Oc3c(F)cc(NC(=O)NC4CC4)c(Br)c3F)c2cc1C(N)=O` [III-17], the IC50 at EGFR is more than 100 nM; in [1], more than 5000 nM; at VEGFR-2 (KDR), more than 10 nM; in experiment [2], more than 1000 nM; at C-MET, more than 100 nM; in experiment [3], more than 10000 nM. The IC50 in experiment [4] is more than 10000 nM; on FGFR2 it was more than 100 nM; in experiment [5], more than 10000 nM; at FGFR4, more than 100 nM.

In the case of `COc1cc2nccc(Oc3c(Br)cc(NC(=O)NC4CC4)c(Cl)c3F)c2cc1C(N)=O` [III-18], the IC50 is more than 100 nM at EGFR; more than 5000 nM in [1]; more than 10 nM on VEGFR-2 (KDR); more than 1000 nM in [2]; more than 100 nM on C-MET; more than 10000 nM in experiment [3]. The IC50 was more than 10000 nM in [4], more than 100 nM at FGFR2, more than 10000 nM in experiment [5] and more than 100 nM at FGFR4.

For the molecule `COc1cc2nccc(Oc3c(Cl)cc(NC(=O)NC4CC4)c(Cl)c3F)c2cc1C(N)=O` [III-19], the IC50 at EGFR was more than 100 nM; in [1] it was more than 5000 nM; at VEGFR-2 (KDR), more than 10 nM; in [2], more than 1000 nM; at C-MET, more than 100 nM; in experiment [3], more than 10000 nM. The IC50 in experiment [4] is more than 10000 nM; at FGFR2, more than 100 nM; in [5], more than 10000 nM; on FGFR4, more than 100 nM.

For `COc1cc2nccc(Oc3c(Cl)cc(NC(=O)NC4CC4)c(Br)c3F)c2cc1C(N)=O` [III-20], the IC50 at EGFR is more than 100 nM; in [1] it was more than 5000 nM; on VEGFR-2 (KDR), more than 10 nM; in experiment [2], more than 1000 nM; at C-MET, more than 100 nM; in experiment [3] it was more than 10000 nM. Moreover, the IC50 in experiment [4] is more than 10000 nM; at FGFR2, more than 100 nM; in experiment [5], more than 10000 nM; on FGFR4, more than 100 nM.

As for `COc1cc2nccc(Oc3c(F)cc(NC(=O)NC4(C)CC4)c(F)c3F)c2cc1C(N)=O` [III-21], the IC50 is more than 100 nM on EGFR; more than 5000 nM in experiment [1]; more than 10 nM on VEGFR-2 (KDR); more than 1000 nM in [2]; more than 100 nM at C-MET; more than 10000 nM in [3]. The IC50 in experiment [4] is more than 10000 nM; on FGFR2, more than 100 nM; in experiment [5], more than 10000 nM; on FGFR4 it was more than 100 nM.

Turning to `COc1cc2nccc(Oc3c(F)cc(NC(=O)NC4(C)CC4)c(Cl)c3F)c2cc1C(N)=O` [III-22], the IC50 was more than 100 nM at EGFR; more than 5000 nM in experiment [1]; more than 10 nM at VEGFR-2 (KDR); more than 1000 nM in [2]; more than 100 nM on C-MET; more than 10000 nM in experiment [3]. For the same molecule, the IC50 was more than 10000 nM in [4], more than 100 nM on FGFR2, more than 10000 nM in experiment [5] and more than 100 nM on FGFR4.

Take `COc1cc2nccc(Oc3c(F)cc(NC(=O)NC4CC4(F)F)c(F)c3F)c2cc1C(N)=O` (stereo not drawn) [III-23]: the IC50 on EGFR was more than 100 nM; in [1], more than 5000 nM; at VEGFR-2 (KDR), more than 10 nM; in experiment [2] it was more than 1000 nM; on C-MET, more than 100 nM; in experiment [3], more than 10000 nM. Further, the IC50 was more than 10000 nM in [4], more than 100 nM at FGFR2, more than 10000 nM in experiment [5] and more than 100 nM on FGFR4.

In the case of `COc1cc2nccc(Oc3c(F)cc(NC(=O)NC4CC4(F)F)c(Cl)c3F)c2cc1C(N)=O` (stereo not drawn) [III-24], the IC50 on EGFR is more than 100 nM; in experiment [1], more than 5000 nM; at VEGFR-2 (KDR), more than 10 nM; in [2], more than 1000 nM; on C-MET it was more than 100 nM; in experiment [3], more than 10000 nM. The IC50 in [4] is more than 10000 nM; at FGFR2, more than 100 nM; in [5], more than 10000 nM; on FGFR4, more than 100 nM.

For the molecule `COc1cc2nccc(Oc3c(F)cc(NC(=O)NCC4CC4)c(Cl)c3F)c2cc1C(N)=O` [III-25], the IC50 is more than 100 nM on EGFR; more than 5000 nM in experiment [1]; more than 10 nM at VEGFR-2 (KDR); more than 1000 nM in [2]; more than 100 nM on C-MET; more than 10000 nM in [3]. Further, the IC50 was more than 10000 nM in experiment [4], more than 100 nM at FGFR2, more than 10000 nM in experiment [5] and more than 100 nM at FGFR4.

As to `COc1cc2nccc(Oc3c(F)cc(NC(=O)NC4CCC4)c(Cl)c3F)c2cc1C(N)=O` [III-26], the IC50 at EGFR is more than 100 nM; in experiment [1] it was more than 5000 nM; on VEGFR-2 (KDR), more than 10 nM; in experiment [2], more than 1000 nM; at C-MET it was more than 100 nM; in experiment [3], more than 10000 nM. Besides, the IC50 is more than 10000 nM in [4], more than 100 nM on FGFR2, more than 10000 nM in experiment [5] and more than 100 nM on FGFR4.

`COc1cc2nccc(Oc3c(F)cc(NC(=O)NC4COC4)c(Cl)c3F)c2cc1C(N)=O` [III-27]: the IC50 at EGFR is more than 100 nM; in experiment [1], more than 5000 nM; at VEGFR-2 (KDR), more than 10 nM; in experiment [2], more than 1000 nM; on C-MET it was more than 100 nM; in [3], more than 10000 nM. For the same molecule, the IC50 in [4] was more than 10000 nM; at FGFR2, more than 100 nM; in experiment [5], more than 10000 nM; on FGFR4, more than 100 nM.

The values are drawn from US12071408B2, “Multi-targeted tyrosine kinase inhibitors effective in antitumor uses” (Shanghai AB PharmaTech Ltd., priority 2021, dated 2024).
